Patent US20260130966A1, “NOVEL THERAPEUTICS FOR PARASITIC INFECTION” (UNIVERSITY OF SOUTH FLORIDA, priority 2022, published 2026)
Converted amounts (≈) assume the structure as drawn. “And” between values parts separate entries of the source, which are not always exact repeats. Identical values can stand only once. “Also recorded” adds a separate entry of the source. Like-named read-outs stand apart in the source and are kept apart here. Where a SMILES comes first, the peptide text is derived from it. [ ]: non-standard residue; d: D form. The star is where a group is joined. ξ: configuration not given here. Phe(Nα-CONH2) = NC(=O)N[C@@H](Cc1ccccc1)C(=O)*; NMeI = CC[C@H](C)[C@H](NC)C(=O)O; NMeξIle = CC[C@H](C)C(NC)C(=O)O; X1 = CN(/C=C\c1c[nH]c2ccccc12)*; NMeL = CN[C@@H](CC(C)C)C(=O)O; NMeV = CN[C@H](C(=O)O)C(C)C; NMeA = CN[C@@H](C)C(=O)O; For = O=C*

How the values were obtained:
[1] = tested on: Leishmania donovani; assay: Leishmania donovani infected macrophage assay; type: cell-based
Procedure: The Leishmania donovani infected macrophage assay and cytotoxicity screen were conducted as previously described.

[2] = tested on: murine J774 macrophage cells; assay: Cytotoxicity testing against murine J774 macrophage cells (CellTiter 96); type: cell-based
Procedure: The isolated compounds were each tested for cytotoxicity using mammalian J774A.1 cell lines (ATCC TIB-67™) in complete media; RPMI 1640 medium with phenol red containing L-glutamine and then supplemented with 10% fetal bovine serum (CM). Cells were seeded at 5×10^5 cell/mL and plated in a 96-well format with 100 μL/well fresh media on day 0 and were incubated overnight at 37° C., 5% CO2 for adherence. Following 24 h incubation, spent media was removed and 100 μL of fresh media with test compounds were serially diluted 1:2 with a starting concentration of 10 μg/mL was added to the cells and incubated for an additional 68 h before adding in 20 μL CellTiter 96® AQueous One Solution Cell Proliferation Assay reagent (Promega). Cells were incubated for an additional 4 h before reading absorbance (490) nm on the CLARIOstar plate reader.

[3] = tested on: P. falciparum 3D7; assay: microbe, parasite or virus in culture; type: cell-based, Plasmodium falciparum
Procedure: (§1) For parasite suspension, P. falciparum malaria strains were grown under normal conditions as previously described by Trager and Jensen with some modifications.” Briefly, parasites were suspended in RPMI 1640 supplemented with 0.23% sodium bicarbonate, […] hypoxanthine and 0.5% albumax (CM), 4% packed washed red blood cells by volume and incubated in a continuous gas incubator set to normal conditions (5% O2, 5% CO2, […]). Parasites were prepared for drug susceptibility assay by highly synchronizing schizonts 16 h before experiment start by using a 70% percoll method. Ring stage parasites were then resuspended in culture with fresh CM containing 2% hematocrit and 0.5% parasitemia.
(§2) Antimalaria activity was assessed against reference strains of NF54, 3D7 and Dd2 using an adaptation of the sensitivity assay of Desjardins et al. using SybrGreen fluorescence as an assessment of parasite growth.^32 NF54 original isolate was obtained from a patient living near Schiphol Airport, Amsterdam and its clonal isolate 3D7 are generally considered to be drug sensitive, though 3D7 does convey resistance to sulfadoxine. Dd2 derived from the parent W2, is multi-drug-resistant line originating from the Indochina III/CDC isolate, which contain point mutations in pfcrt as well as amplifications in pfmdr1 and GTP cyclohydrolase. Briefly, compounds were diluted to 10 μg/mL and serially diluted along a microtiter plate before adding in 100 μL/well of the parasite suspension. Parasite growth was compared to controls incubated at 37° C. and normal culture conditions (5% O2, 5% CO2, 90% N2) for 72 h. Plates were frozen and thawed before adding a final 1× concentration of SybrGreen in lysis buffer and read on the CLARIOstar fluorescence plate reader (Ex/Em 484-15/528-15) following a 45 min incubation at room temperature. Drug EC50 values were calculated by interpolation of the probit transformation of the log(dose)-response curve using the MARS software provided by BMG.

[4] = tested on: P. falciparum NF54; assay: microbe, parasite or virus in culture; type: cell-based, Plasmodium falciparum
Procedure: as §1, §2

[5] = tested on: P. falciparum Dd2; assay: microbe, parasite or virus in culture; type: cell-based, Plasmodium falciparum
Procedure: as §1, §2

[6] = tested on: ESKAPE panel of bacterial pathogens; assay: ESKAPE panel antibacterial screen; type: cell-based
[7] = tested on: Blood-Stage P. falciparum Strains; assay: Initial blood-stage screen against several P. falciparum strains; type: cell-based, Plasmodium falciparum
Procedure: as §1, §2

[8] = tested on: HepG2; assay: MTT cytotoxicity, human liver HepG2 cells; type: cell-based; conditions: HepG2, same concentrations alcyopterosins were assayed
Procedure: (§3) The cytotoxicity of the metabolites to human liver cells and kidney cells was determined using an MTT based-In Vitro Toxicology Assay Kit (Sigma-Aldrich, St. Louis, MO, USA) following the manufacturing instructions. The human kidney HEK293T cells and the human liver HEPGZ cells were used for the evaluation in this study. Both cell samples were maintained and suspended in Dulbecco's Modified Eagle Medium (DMEM with 4.5 g/L glucose, L-glutamine and sodium pyruvate, Corning, Manassas, VA, USA) containing 10% fetal bovine serum (Thermo Scientific) and 1% penicillin/streptomycin at 37° C. under 5% CO2 atmosphere. The cells were plated on a 96-well plate with approximately 5×10^3-1×10^4 cells in each well, and incubated at 37° C. overnight. […] After that, the liquid in each well of the plate was removed carefully and thoroughly, then the cells in the wells were treated with 100 μL of DMSO, and incubated at 37° C. for 15 m. […] Bio Tek Instruments, Inc. Winooski VT). Cells treated with vancomycin, a common option for treating CDI in clinical settings, were also included in the MTT tests as a control. Cell survival and the IC50 were calculated according to the method used in a previous publication: Survival of cells (%)=Drug-treated group OD540/control group OD540×100.

[9] = tested on: C. difficile UK6; assay: C. difficile MIC screening; type: cell-based, Clostridium difficile; conditions: Clostridioides difficile, UK6
[10] = tested on: HEK293T; assay: MTT cytotoxicity, human kidney HEK293T cells; type: cell-based; conditions: HEK293T, same concentrations alcyopterosins were assayed
Procedure: as §3

[11] = cytotoxicity, murine J774 macrophage cells, read-out: EC50

Molecule: 4,12-Bis(acetyl)alcyopterosin O [Compound C8]
- IC50 [1]: 1.2 µM

Molecule: CCN(CC)CCCC(C)Nc1ccnc2cc(Cl)ccc12 (stereo not shown) [Chloroquine, reference compound]
- EC50 ([2]; Mus musculus, J774): 16.3 µg/mL and 51 µM
- IC50 ([3]; Plasmodium falciparum, 3D7, read-out: IC50 Values against Blood-Stage P. falciparum Strains: 3D7): 0.03 µM
- IC50 ([4]; Plasmodium falciparum, NF54, read-out: IC50 Values against Blood-Stage P. falciparum Strains: NF54): 0.03 µM
- IC50 ([5]; Plasmodium falciparum, DD2, read-out: IC50 Values against Blood-Stage P. falciparum Strains: Dd2): 1.28 µM

Molecule: CC(=O)O[C@@H]1[C@H](OC(C)=O)[C@H]([C@H](C)CCCC(C)C)[C@@]2(C)C[C@@H](OC(C)=O)[C@H]3[C@@H](C[C@@H](O)[C@H]4CC=CC(=O)[C@]34C)[C@H]12 [Compound C5, alcyosterone]
- activity against the ESKAPE panel [6]: inactive
- IC50 ([1]; Macrophage): 1.5 µM

Molecule: Cc1cc2c(c(C)c1CCO[N+](=O)[O-])CC(C)(C)C2=O [Compound C6, alcyopterosin C]
- IC50 [1]: 13 µM

Molecule: Cc1cc2c(c3c1[C@@H](CCl)OC3=O)CC(C)(C)[C@@H]2O [Compound C9, alcyopterosin L]
- IC50 [1]: 2.4 µM

Molecule: CC[C@H](C)[C@@H](C(=O)N(C)/C=C\c1c[nH]c2ccccc12)N(C)C(=O)[C@H](C(C)C)N(C)C(=O)[C@H](C(C)C)N(C)C(=O)[C@H](CC(C)C)N(C)C(=O)[C@@H]1CCCN1C(=O)[C@H](Cc1ccccc1)NC(=O)[C@H](Cc1ccccc1)NC(C)=O [Compound P2, friomaramide B] (Ac-FFP[NMeL][NMeV][NMeV][NMeI]-X1)
- EC50 [2]: 24.6 µM
- EC50 (μg/mL) [2]: 26.7 µg/mL (≈ 24.6 µM)
- blood-stage anti-malarial activity [7]: modest activity
- IC50 ([3]; 3D7): 8.65 µM
- IC50 ([4]; NF54): 3.93 µM
- IC50 ([5]; Dd2): 3.3 µM

Molecule: CC[C@H](C)[C@@H](C(N)=O)N(C)C(=O)[C@H](C(C)C)N(C)C(=O)[C@H](CC(C)C)N(C)C(=O)[C@H](Cc1ccccc1)N(C)C(=O)[C@H](Cc1ccccc1)NC=O [Compound P3, shagamide A]
- EC50 (μg/mL) [2]: >100 µg/mL
- EC50 [2, 11]: > 100 µM
- IC50 ([3]; 3D7): 2.1 µM
- activity against the 3D7 strain ([3]; blood stage, strain 3D7): comparable activity
- IC50 ([4]; NF54): 2.61 µM
- IC50 ([5]; Dd2): 1.72 µM

Molecule: CC[C@H](C)C(C(=O)N(C)[C@H](C(=O)NC)[C@@H](C)CC)N(C)C(=O)[C@H](C(C)C)N(C)C(=O)[C@H](C)N(C)C(=O)[C@H](C(C)C)N(C)C(=O)[C@H](C(C)C)N(C)C(=O)[C@@H](NC=O)C(C)C (stereo partly shown) [Compound P4, shagamide B] (For-V[NMeV][NMeV][NMeA][NMeV][NMeξIle][NMeI]-NHMe)
- EC50 (μg/mL) [2]: >100 µg/mL
- EC50 [2, 11]: > 100 µM
- blood-stage anti-malarial activity [7]: did not show significant activity; also recorded: inactive
- IC50 ([3]; 3D7): > 10 µM
- IC50 ([4]; NF54): > 10 µM
- IC50 ([5]; Dd2): 4.37 µM

Molecule: CNC(=O)[C@H](C(C)C)N(C)C(=O)[C@H](C(C)C)N(C)C(=O)[C@H](C(C)C)N(C)C(=O)[C@H](C)N(C)C(=O)[C@H](C)N(C)C(=O)[C@H](CC(C)C)N(C)C(=O)[C@H](C(C)C)N(C)C(=O)[C@H](Cc1ccccc1)NC=O [Compound P5, shagamide C] (For-F[NMeV][NMeL][NMeA][NMeA][NMeV][NMeV][NMeV]-NHMe)
- EC50 (μg/mL) [2]: >100 µg/mL
- EC50 [2, 11]: > 100 µM
- IC50 ([3]; 3D7): 2.52 µM
- inhibition of strain 3D7 ([3]; blood stage, strain 3D7): 2.52 µg/mL
- IC50 ([4]; NF54): 3.73 µM
- IC50 ([5]; Dd2): 1.07 µM

Molecule: CNC(=O)[C@H](C(C)C)N(C)C(=O)[C@H](C(C)C)N(C)C(=O)[C@H](C(C)C)N(C)C(=O)[C@H](C)N(C)C(=O)[C@H](C)N(C)C(=O)[C@H](CC(C)C)N(C)C(=O)[C@H](C(C)C)N(C)C(=O)[C@H](Cc1ccccc1)NC(N)=O [Compound P6, shagamide D] ({Phe(Nα-CONH2)}-[NMeV][NMeL][NMeA][NMeA][NMeV][NMeV][NMeV]-NHMe)
- EC50 (μg/mL) [2]: >100 µg/mL
- EC50 [2, 11]: > 100 µM
- IC50 ([3]; 3D7): > 10 µM
- activity against the 3D7 strain ([3]; blood stage, strain 3D7): inactive
- IC50 ([4]; NF54): 3.05 µM
- IC50 ([5]; Dd2): 2.02 µM

Molecule: CC[C@H](C)[C@@H](C(=O)NC)N(C)C(=O)[C@H](C)N(C)C(=O)[C@H](C(C)C)N(C)C(=O)[C@H](C(C)C)N(C)C(=O)[C@H](C)N(C)C(=O)[C@H](C(C)C)N(C)C(=O)[C@H](C(C)C)N(C)C(=O)[C@H](C)N(C)C(=O)[C@H](C)NC(C)=O [Compound P7, shagamide E] (Ac-A[NMeA][NMeV][NMeV][NMeA][NMeV][NMeV][NMeA][NMeI]-NHMe)
- EC50 (μg/mL) [2]: >100 µg/mL
- EC50 [2, 11]: > 100 µM
- blood-stage anti-malarial activity [7]: did not show significant activity
- IC50 ([3]; 3D7): > 10 µM
- IC50 ([4]; NF54): > 10 µM
- IC50 ([5]; Dd2): > 10 µM

Molecule: CC[C@H](C)[C@@H](C(=O)N(C)[C@@H](C)C(=O)N(C)[C@H](C(N)=O)C(C)C)N(C)C(=O)[C@H]([C@@H](C)CC)N(C)C(=O)[C@H](C)N(C)C(=O)[C@H](C(C)C)N(C)C(=O)[C@H](C)N(C)C(=O)[C@@H](NC(C)=O)C(C)C [Compound P8, shagamide F] (Ac-V[NMeA][NMeV][NMeA][NMeI][NMeI][NMeA][NMeV]-NH2)
- EC50 (μg/mL) [2]: >100 µg/mL
- EC50 [2, 11]: > 100 µM
- blood-stage anti-malarial activity [7]: did not show significant activity
- IC50 ([3]; 3D7): > 10 µM
- IC50 ([4]; NF54): > 10 µM
- IC50 ([5]; Dd2): > 10 µM

Molecule: CN[C@H](CC(C)C)C(=O)N[C@H]1C(=O)N[C@@H](CC(N)=O)C(=O)N[C@H]2C(=O)N[C@H]3C(=O)N[C@H](C(=O)N[C@H](C(=O)O)c4cc(O)cc(O)c4-c4cc3ccc4O)[C@H](O)c3ccc(c(Cl)c3)Oc3cc2cc(c3O[C@@H]2O[C@H](CO)[C@@H](O)[C@H](O)[C@H]2O[C@H]2C[C@](C)(N)[C@H](O)[C@H](C)O2)Oc2ccc(cc2Cl)[C@H]1O [Vancomycin, reference compound]
- toxicity to host cells [8]: non-toxic
- MIC [9]: 0.34 µM (≈ 0.493 µg/mL)
- toxicity to host cells [10]: non-toxic

Molecule: CCCCCCCCCCCCCCCCOP(=O)([O-])OCC[N+](C)(C)C [miltefosine, reference compound]
- IC50 ([1]; Macrophage): 6.2 µM
